Results on four molecules are retold here after US11524011B2, “H3K27 demethylase inhibitors in pediatric and juvenile osteoporosis” (THE JOHNS HOPKINS UNIVERSITY, priority 2017, dated 2022).

Entries after “also recorded” stand apart in the source; their conditions may differ.

The subject of series [1] is childhood cancer diffuse intrinsic pontine glioma. As to conditions: preclinical studies; cited from earlier work.
Series [2] deals with BALB/c mice. The experiment in a line: GSK-J4 in glucocorticoid (MPS)-treated young BALB/c mice: body weight, tail length, bone loss (μCT), angiogenesis and osteogenesis. Here is the method: FIGS. 10A-10B. […] Body weight (10A) and Tail length (10B) were monitored at 2, 3, and 4 weeks after treatment. FIGS. 11A-11F. […] (11A) Representative μCT images of distal femur. Quantitative analyses of Femur length (11B), Trabecular bone volume fraction (BV/TV) (11C), trabecular number (Tb.N) (11D), trabecular thickness (Tb.Th) (11E), and trabecular separation (Tb.Sp) (11F). […] FIGS. 12A-12F. […] (12A-B) Double-immunofluorescence staining of femur sections was performed using antibodies against nestin (green) and H3K27me3 (red) (12A). Quantification of the percentage of nestin^+ cells that express H3K27me3 in the primary spongiosa (12B). Immunofluorescence staining of femur sections using antibody against osterix (Osx) (12C). Quantitative analysis of Osx^+ cells in the primary spongiosa (12D). Double-immunofluorescence staining of femur sections was performed using antibodies against CD31 (green) and endomucin (Emcn) (red) (12E). […] DAPI stains nuclei blue. Seven mice per group. GP, growth plate. PS, primary spongiosa. Mice femora were dissected, fixed overnight in 70% ethanol, and analyzed by high-resolution μCT (Skyscan 1172, Bruker MicroCT, Kontich, Belgium). We used NRecon image reconstruction software, version 1.6, (Bruker MicroCT), CTAn data-analysis software, version 1.9 (Bruker MicroCT), and CTVol 3-dimensional model visualization software, version 2.0, (Bruker MicroCT) to analyze parameters of the trabecular bone in the metaphysis and cortical bone in the mid-diaphysis. The scanner was set at 50 kVp, […]. Cross-sectional images of the distal femur were used to perform 3-dimensional histomorphometric analysis of trabecular bone. The sample area selected for analyses was a 2-mm length of the metaphyseal secondary spongiosa, originating 1.0 mm below the epiphyseal growth plate and extending caudally. Cortical morphometry was analyzed within a 600-μm long section at mid-diaphysis of the femur and included measurements of average thickness and cross-sectional area. […] Nuclei were counterstained with DAPI (Sigma).

Series [3] concerns BALB/c mice. Particulars: MPS daily for 2 weeks; compared to controls.
Protocol: Four-week-old BALB/c mice were treated with methylprednisolone (MPS) or vehicle daily for 2 weeks. (8A) A schematic illustration of the steps to isolate CD144^+ vascular endothelial cells from femoral metaphyses. […] (8D-8G) Quantitative RT-PCR analysis of ki67 (8D) p16^INK4a (8E), p53 (8F), and p21^CIP1 (8G) expression in the sorted CD144^+ cells. n=3, Data are represented as mean±s.e.m. *p<0.01 as determined by Student's t-tests.
Series [4] relates to Nestin-GFP mice. The experiment in a line: Prednisolone treatment of early pubertal Nestin-GFP mice: cellular senescence / nestin expression in femoral primary spongiosa. It counts as in vivo, mouse. Here is the method: (§1) FIGS. 4A-4L. Cellular Senescence in Primary Spongiosa of Long Bone is Decelerated in Growth Hormone (GH)-Treated Mice and Accelerated in Prednisolone-Treated Mice. (4A-4F) Four week-old Nestin-GFP mice were treated with recombinant mouse-GH (5 mg/kg·B·W.) or Vehicle by daily intraperitoneal injection for 4 weeks. Immunofluorescence staining of femur sections were performed using antibodies against GFP (green) (4A) or Ki67 (red) (4E). Images in upper panels in (4A) and (4E) are lower power with boxes outlining the area of higher power in lower panels. Quantification of the number of GFP+ (4B) or Ki67+ (4F) cells in femoral primary spongiosa. […] (4G-4L) Two-week-old Nestin-GFP mice were treated with prednisolone (10 mg/m^2/day) or Vehicle by daily intraperitoneal injection for 2 weeks. Immunofluorescence staining of femur sections were performed using antibodies against GFP (green) (4G) or Ki67 (red) (4K). Images in upper panels in (4G) and (4K) are lower power with boxes outlining the area of higher power in lower panels. Quantification of the number of GFP+ (4H) or Ki67+ (4L) cells in femoral primary spongiosa. […] Five mice per group. […] GP, growth plate.
(§2) For flow cytometric analysis and sorting of CD45-GFP− and CD45-GFP+ mesenchymal progenitor cells (MPCs) from femoral metaphysis, we dissected the femora free of soft tissues from Nestin-GFP mice. The epiphysis was removed and only the 3-mm-long metaphysis regions were processed. The bone was then digested with a protease solution (2 mg/mL collagenase A and 2.5 mg/mL trypsin in phosphate buffered saline [PBS]) for 20 minutes to remove the periosteum and periosteal progenitors (step I). […]
One of the major causes of secondary osteoporosis in children is the use of glucocorticoids for treatment of underlying chronic medical problems, such as autoimmune or inflammatory disorders. […] We thus assessed whether glucocorticoid-treated early pubertal mice display premature cellular senescence in primary spongiosa by injecting mice daily with prednisolone from age 2 weeks to 4 weeks.

The subject of series [5] is Nestin-GFP mice. The experiment in a line: Growth hormone treatment of pubertal Nestin-GFP mice: cellular senescence / nestin expression in femoral primary spongiosa. It counts as in vivo, mouse. The method, then: as §1
as §2, with “I). The bones were cut into small pieces and digested in the protease solution for another 1 hour (C, step II).” for “I).”
We tested whether the progression of the cellular senescence in primary spongiosa of long bone, as indicated by loss of nestin expression, is associated with bone growth/accrual. […] We assessed changes in nestin expression in the femoral primary spongiosa in pubertal mice after administration of recombinant GH. […]

Where [6] appears, read: MPS plus GSK-J4 10 mg/kg b.w. daily for 4 weeks, compared to MPS alone and to controls.
The mark [7] stands for this setting: summary statement, glucocorticoid-treated mice.

With `CCOC(=O)CCNc1cc(N2CCc3ccccc3CC2)nc(-c2ccccn2)n1` [GSK-J4, N-[2-(2-Pyridinyl)-6-(1,2,4,5-tetrahydro-3H-3-benzazepin-3-yl)-4-pyrimidinyl]-β-alanine ethyl ester], in series [1], the “growth of childhood cancer diffuse intrinsic pontine glioma” value is listed as “effectively inhibit”. Besides, the “bone loss phenotype induced by MPS (μCT of distal femur: femur length, BV/TV, Tb.N, Tb.Th, Tb.Sp)” value in series [2] (MPS plus GSK-J4 10 mg/kg b.w. daily for 4 weeks, 10 mg/kg) is on record as “at least partially reversed; also recorded: rescued”. In addition, in series [2] (setting [6]), the “angiogenesis in femoral primary spongiosa (CD31 / Emcn fluorescence intensities)” value was “greatly improve” and the “osteogenesis in femoral primary spongiosa (Osx+ cells)” value was “greatly improve”. The “MPS-induced shortening of tail length” value in series [2] (concurrent treatment, MPS plus GSK-J4 10 mg/kg b.w. daily, 2, 3 and 4 weeks) was “abolished”. Also, in series [2] (summary statement), the glucocorticoid-induced growth retardation entry is “rescued”. In series [2] (setting [7]), the H3K27 methylation result is reported as “elevated” and the “early onset cellular senescence” value is “blocked”.
`C[C@H]1C[C@@H]2[C@H]([C@@H](O)C[C@@]3(C)[C@H]2CC[C@]3(O)C(=O)CO)[C@@]2(C)C=CC(=O)C=C12` [MPS, methylprednisolone]: in series [2] (MPS alone daily, 2, 3 and 4 weeks, compared with controls), the tail length result is “significantly shortened”. The body weight entry in series [2] (MPS alone daily, monitored at 2, 3 and 4 weeks after treatment) is “no significant effect”. Moreover, in series [3], the “ki67 expression in sorted CD144+ cells (quantitative RT-PCR)” value is recorded as “less”, the “p16^INK4a expression in sorted CD144+ cells (quantitative RT-PCR)” value was “increased”, the “p21^CIP1 expression in sorted CD144+ cells (quantitative RT-PCR)” value is given as “increased” and the “p53 expression in sorted CD144+ cells (quantitative RT-PCR)” value was “increased”.
As to `C[C@]12C=CC(=O)C=C1CC[C@@H]1[C@@H]2[C@@H](O)C[C@@]2(C)[C@H]1CC[C@]2(O)C(=O)CO` [prednisolone], the “senescence of the cells in primary spongiosa” value in series [4] (mice treated with prednisolone) is recorded as “accelerated”. The “Ki67+ proliferative cells in femoral primary spongiosa” value in series [4] (prednisolone 10 mg/m^2/day daily i.p. for 2 weeks, vs vehicle) is given as “reduced”. The “number of Nestin-GFP+ cells in femoral primary spongiosa (immunofluorescence staining and flow cytometry)” value in series [4] (prednisolone 10 mg/m^2/day daily i.p. from age 2 weeks to 4 weeks, relative to vehicle-treated mice) is reported as “significantly reduced”.

B1: GH: recombinant mouse growth hormone (protein, UniProt P06880 27-216, looked up)
Somatotropin: FPAMPLSSLFSNAVLRAQHLHQLAADTYKEFERAYIPEGQRYSIQNAQAAFCFSETIPAPTGKEEAQQRTDMELLRFSLLLIQSWLGPVQFLSRIFTNSLMFGTSDRVYEKLKDLEEGIQALMQELEDGSPRVGQILKQTYDKFDANMRSDDALLKNYGLLSCFKKDLHKAETYLRVMKCRRFVESSCAF
Take B1: the “percentage of Ki67+ proliferative cells in primary spongiosa” value in series [5] (GH 5 mg/kg daily i.p. for 4 weeks, relative to vehicle-treated mice) is on record as “higher”. Moreover, the “senescence of the cells in primary spongiosa” value in series [5] (mice treated with growth hormone) is given as “reduced”. In series [5] (recombinant mouse-GH 5 mg/kg B.W. daily intraperitoneal injection for 4 weeks from 4 weeks of age, vs vehicle-treated mice), the “Nestin-GFP+ cells in primary spongiosa (immunofluorescence staining)” value was “significantly increased”.
